Results taken from ChEMBL document CHEMBL1125149, “Quinazoline antifolate thymidylate synthase inhibitors: benzoyl ring modifications in the C2-methyl series” (J Med Chem, 1990).

Experiments:
L1210 [1] = test: (§1) Percent control for L1210 cell growth in the presence of thymidine (in vitro); type: functional, Mus musculus; design: concentration or dose not given beside the values
L1210 [2] = test: Growth inhibition of L1210 cells in culture.; type: functional, cell-based; details: Mus musculus
Thymidylate synthase = Thymidylate synthase (Mus musculus, UniProt P07607); test: Inhibition of partially purified thymidylate synthase (TS)
Chain of Thymidylate synthase (P07607 whole entry): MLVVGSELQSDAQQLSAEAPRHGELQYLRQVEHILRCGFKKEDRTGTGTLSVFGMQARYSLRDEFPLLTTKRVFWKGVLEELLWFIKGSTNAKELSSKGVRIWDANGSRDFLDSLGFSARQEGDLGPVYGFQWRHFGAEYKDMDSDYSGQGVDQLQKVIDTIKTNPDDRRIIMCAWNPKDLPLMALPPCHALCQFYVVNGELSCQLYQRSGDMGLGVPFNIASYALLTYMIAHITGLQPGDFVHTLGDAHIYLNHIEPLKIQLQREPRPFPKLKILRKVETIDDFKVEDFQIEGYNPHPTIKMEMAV

L1210 [3] = test: as §1; type: functional, Mus musculus

SMILES	IC50 (L1210 [2]) [nM]	IC50 (Thymidylate synthase) [nM]	Control (L1210 [1]) [%]	Control (L1210 [3]) [%]
C#CCN(Cc1ccc2nc(C)[nH]c(=O)c2c1)c1ccc(C(=O)N[C@@H](CCC(=O)O)C(=O)O)cc1			100	
C=CCN(Cc1ccc2nc(C)[nH]c(=O)c2c1)c1ccc(C(=O)N[C@@H](CCC(=O)O)C(=O)O)cc1			104	
C#CCN(Cc1ccc2nc(C)[nH]c(=O)c2c1)c1ccc(C(=O)N[C@@H](CCC(=O)O)C(=O)O)cc1F	52	1430	102	
Cc1nc2ccc(CN(C)c3ccc(C(=O)N[C@@H](CCC(=O)O)C(=O)O)c(C)c3)cc2c(=O)[nH]1	800	940		
Cc1nc2ccc(CN(C)c3ccc(C(=O)N[C@@H](CCC(=O)O)C(=O)O)cc3)cc2c(=O)[nH]1			100	
Cc1nc2ccc(CN(C)c3ccc(C(=O)N[C@@H](CCC(=O)O)C(=O)O)cc3F)cc2c(=O)[nH]1	140	1140		92
Cc1nc2ccc(CN(CCCO)c3ccc(C(=O)N[C@@H](CCC(=O)O)C(=O)O)cc3F)cc2c(=O)[nH]1	170	980		
C#CCN(Cc1ccc2nc(C)[nH]c(=O)c2c1)c1ccc(C(=O)N[C@@H](CCC(=O)O)C(=O)O)c(OC)c1	3000	67	95	
Cc1nc2ccc(CN(C)c3ccc(C(=O)N[C@@H](CCC(=O)O)C(=O)O)c(N)c3)cc2c(=O)[nH]1	760	860		
Cc1nc2ccc(CNc3ccc(C(=O)N[C@@H](CCC(=O)O)C(=O)O)c(F)c3)cc2c(=O)[nH]1	64	3780	94	
CCN(Cc1ccc2nc(C)[nH]c(=O)c2c1)c1ccc(C(=O)N[C@@H](CCC(=O)O)C(=O)O)c([N+](=O)[O-])c1	1500	145		
C#CCN(Cc1ccc2nc(C)[nH]c(=O)c2c1)c1ccc(C(=O)N[C@@H](CCC(=O)O)C(=O)O)c(F)c1			97	
CCN(Cc1ccc2nc(C)[nH]c(=O)c2c1)c1ccc(C(=O)N[C@@H](CCC(=O)O)C(=O)O)cc1			88	
Cc1nc2ccc(CNc3ccc(C(=O)N[C@@H](CCC(=O)O)C(=O)O)cc3F)cc2c(=O)[nH]1	120	9340	86	
C#CCN(Cc1ccc2nc(C)[nH]c(=O)c2c1)c1ccc(C(=O)N[C@@H](CCC(=O)O)C(=O)O)c([N+](=O)[O-])c1	400	130		
C=CCN(Cc1ccc2nc(C)[nH]c(=O)c2c1)c1ccc(C(=O)N[C@@H](CCC(=O)O)C(=O)O)cc1F	140	5160	97	
C#CCN(Cc1ccc2nc(C)[nH]c(=O)c2c1)c1ccc(C(=O)N[C@@H](CCC(=O)O)C(=O)O)c(C(F)(F)F)c1	1200	480		
Cc1nc2ccc(CN(CCCO)c3ccc(C(=O)N[C@@H](CCC(=O)O)C(=O)O)cc3)cc2c(=O)[nH]1			95	

More lines, main results first:

IC50 (L1210 [2]) [nM]	IC50 (Thymidylate synthase) [nM]	SMILES	Control (L1210 [1]) [%]	Control (L1210 [3]) [%]
360	500	C#CCN(Cc1ccc2nc(C)[nH]c(=O)c2c1)c1ccc(C(=O)N[C@@H](CCC(=O)O)C(=O)O)c(C)c1	97	
30	590	Cc1nc2ccc(CN(CCCO)c3ccc(C(=O)N[C@@H](CCC(=O)O)C(=O)O)c(F)c3)cc2c(=O)[nH]1	95	
500	90	C#CCN(Cc1ccc2nc(C)[nH]c(=O)c2c1)c1ccc(C(=O)N[C@@H](CCC(=O)O)C(=O)O)c(O)c1	77	
85	3580	Cc1nc2ccc(CN(CCO)c3ccc(C(=O)N[C@@H](CCC(=O)O)C(=O)O)cc3F)cc2c(=O)[nH]1	95	
250	74	C#CCN(Cc1ccc2nc(C)[nH]c(=O)c2c1)c1ccc(C(=O)N[C@@H](CCC(=O)O)C(=O)O)c(Cl)c1		
34	170	Cc1nc2ccc(CN(CC#N)c3ccc(C(=O)N[C@@H](CCC(=O)O)C(=O)O)c(F)c3)cc2c(=O)[nH]1	90	
2700	11700	Cc1nc2ccc(CN(CCN)c3ccc(C(=O)N[C@@H](CCC(=O)O)C(=O)O)c(F)c3)cc2c(=O)[nH]1		
800	1340	Cc1nc2ccc(CN(CC(N)=O)c3ccc(C(=O)N[C@@H](CCC(=O)O)C(=O)O)c(F)c3)cc2c(=O)[nH]1		
360	290	C#CCN(Cc1ccc2nc(C)[nH]c(=O)c2c1)c1ccc(C(=O)N[C@@H](CCC(=O)O)C(=O)O)c(N)c1		
65	45	CCN(Cc1ccc2nc(C)[nH]c(=O)c2c1)c1ccc(C(=O)N[C@@H](CCC(=O)O)C(=O)O)c(F)c1	96	
870	120	CCN(Cc1ccc2nc(C)[nH]c(=O)c2c1)c1ccc(C(=O)N[C@@H](CCC(=O)O)C(=O)O)c(Cl)c1		
1200	320	CCN(Cc1ccc2nc(C)[nH]c(=O)c2c1)c1ccc(C(=O)N[C@@H](CCC(=O)O)C(=O)O)c(C)c1	94	
69	1750	Cc1nc2ccc(CN(CCF)c3ccc(C(=O)N[C@@H](CCC(=O)O)C(=O)O)cc3F)cc2c(=O)[nH]1		
86	680	CCN(Cc1ccc2nc(C)[nH]c(=O)c2c1)c1ccc(C(=O)N[C@@H](CCC(=O)O)C(=O)O)cc1F	96	
100	76	C=CCN(Cc1ccc2nc(C)[nH]c(=O)c2c1)c1ccc(C(=O)N[C@@H](CCC(=O)O)C(=O)O)c(F)c1	97	
130	43	Cc1nc2ccc(CN(CCF)c3ccc(C(=O)N[C@@H](CCC(=O)O)C(=O)O)c(F)c3)cc2c(=O)[nH]1	98	
19	120	Cc1nc2ccc(CN(C)c3ccc(C(=O)N[C@@H](CCC(=O)O)C(=O)O)c(F)c3)cc2c(=O)[nH]1	98	
70	78	Cc1nc2ccc(CN(CCO)c3ccc(C(=O)N[C@@H](CCC(=O)O)C(=O)O)c(F)c3)cc2c(=O)[nH]1		
18000	190	CCN(Cc1ccc2nc(C)[nH]c(=O)c2c1)c1ccc(C(=O)N[C@@H](CCC(=O)O)C(=O)O)c(OC)c1		
1300	310	CCN(Cc1ccc2nc(C)[nH]c(=O)c2c1)c1ccc(C(=O)N[C@@H](CCC(=O)O)C(=O)O)c(N)c1		
